Measurements from US20260070945A1, “MACROCYCLIC IMMUNOMODULATORS” (Bristol-Myers Squibb Company, priority 2022, published 2026).
*1 amine or outer side, *2 acyl side, *3 side chain or, on linkers, in order; H or OH if unused. Where a SMILES comes first, the peptide text is derived from it. Bridges are numbered along the chain shown (N, C = ends). [ ]: non-standard residue; d: D form. The star is where a group is joined. ξ: configuration not given here. X3 = NCCC[C@H](NC(=O)CNCCNCCN*)C(=O)NCCCCCCCCCCC(=O)O; Phe(3-CF3) = N[C@@H](Cc1cccc(C(F)(F)F)c1)C(=O)O; Ala(morpholin-4-yl) = N[C@@H](CN1CCOCC1)C(=O)O; Phe(4-COOH) = N[C@@H](Cc1ccc(C(=O)O)cc1)C(=O)O; Bip = N[C@@H](Cc1ccc(-c2ccccc2)cc1)C(=O)O; Phe(3-Me) = Cc1cccc(C[C@H](N)C(=O)O)c1; γGlu = O=C(O)[C@H](CCC(=O)[*:2])N[*:1]; NH(CH2)12COOH = O=C(O)CCCCCCCCCCCCN*; ξγGlu = O=C(O)C(CCC(=O)[*:2])N[*:1]; Val(3-OH) = CC(C)(O)[C@H](N)C(=O)O; dIle(3ξ) = CCC(C)[C@@H](N)C(=O)O; 4Pal = N[C@@H](Cc1ccncc1)C(=O)O; Cha = N[C@@H](CC1CCCCC1)C(=O)O; Cit = NC(=O)NCCC[C@H](N)C(=O)O; Ile(3ξ) = CCC(C)[C@H](N)C(=O)O; Thr(3ξ) = CC(O)[C@H](N)C(=O)O; 12Ado = NCCCCCCCCCCCC(=O)O; Carboxymethyl = O=C(O)C*; NMeA = CN[C@@H](C)C(=O)O; Orn = NCCC[C@H](N)C(=O)O; dNMeA = CN[C@H](C)C(=O)O; Aun = NCCCCCCCCCCC(=O)O; Dab = NCC[C@H](N)C(=O)O; Dap = NC[C@H](N)C(=O)O; AEEA = NCCOCCOCC(=O)O

biological target: T1, PD-1/PD-L1 interaction (PE-labeled human PD-L1-Ig binding to Jurkat cell line over-expressing human PD-1) (Homo sapiens, UniProt Q15116); test: Jurkat-PD-1 Cell Binding High-Content Screening Assay (CBA); settings: Jurkat-hPD-1 cells, PE-labeled PD-L1-Ig 20 nM final; read-out: Jurkat HPD1 PDL1 IC50
T1 construct: expressed in transfected cells; host or cells: Jurkat
In short: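 Read-out: high-content imaging of cell-bound PE fluorescence, with Hoechst 33342 nuclear counterstain after paraformaldehyde fixation. Before labeled ligand (20 nM final, 1 h) was added, compound sat on the cells for 2 h at 37 °C in DMEM/10% FCS.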

T1 sequence (Q15116 25-288): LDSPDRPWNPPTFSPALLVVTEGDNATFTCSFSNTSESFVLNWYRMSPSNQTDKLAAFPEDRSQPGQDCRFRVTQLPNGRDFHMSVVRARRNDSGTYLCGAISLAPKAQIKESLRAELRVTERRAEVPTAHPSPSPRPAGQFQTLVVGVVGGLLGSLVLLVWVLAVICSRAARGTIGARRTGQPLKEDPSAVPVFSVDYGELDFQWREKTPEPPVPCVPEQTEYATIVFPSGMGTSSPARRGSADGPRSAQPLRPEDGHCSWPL

SMILES | IC50
CCC(C)[C@@H]1NC(=O)[C@H](Cc2ccc(-c3ccccc3)cc2)NC(=O)[C@H](C(C)C)NC(=O)[C@H](Cc2c[nH]c3ccccc23)NC(=O)[C@H](CC(=O)O)NC(=O)[C@H](Cc2ccc(OCC(=O)O)cc2)NC(=O)[C@H](C(C)O)NC(=O)CSC[C@@H](C(=O)N[C@@H](C)C(=O)NCCOCCOCC(=O)N[C@@H](CCC(=O)NCCOCCOCC(=O)N[C@@H](CCC(=O)NCCOCCOCC(=O)N[C@@H](CCCN)C(=O)NCCCCCCCCCCCC(=O)O)C(=O)O)C(=O)O)NC(=O)[C@H](C(C)O)NC(=O)[C@H](C(C)C)NC(=O)[C@H](CC2CCCCC2)NC(=O)[C@H](CCN)NC(=O)[C@@H](CC(C)C)NC(=O)[C@H](C)N(C)C1=O (stereo partly drawn) [Example 2010] ({CH2CO}-[Thr(3ξ)]Y(Carboxymethyl)DWV[Bip][Ile(3ξ)][NMeA][dL][Dab][Cha]V[Thr(3ξ)]CA[AEEA][γGlu][AEEA][γGlu][AEEA][Orn][12Ado]-OH; thioether N-14) | 0.0348 µM
Cc1cccc(C[C@@H]2NC(=O)[C@H](CC(=O)O)NC(=O)[C@H](Cc3ccc(C(=O)O)cc3)NC(=O)[C@H](Cc3ccc(OCC(=O)O)cc3)NC(=O)CSC[C@@H](C(=O)N[C@@H](CCN)C(=O)NCCCCCCCCCCC(=O)O)NC(=O)[C@H](C(C)O)NC(=O)[C@H](C(C)C)NC(=O)[C@H](CC3CCCCC3)NC(=O)[C@H](CCN)NC(=O)[C@@H](CC(C)C)NC(=O)[C@H](C)N(C)C(=O)[C@H](Cc3ccc(C(=O)O)cc3)NC(=O)[C@H](Cc3ccc(-c4ccccc4)cc3)NC(=O)[C@H](CC(C)C)NC2=O)c1 (stereo partly drawn) [Example 2335] ({CH2CO}-Y(Carboxymethyl)[Phe(4-COOH)]D[Phe(3-Me)]L[Bip][Phe(4-COOH)][NMeA][dL][Dab][Cha]V[Thr(3ξ)]C[Dab][Aun]-OH; thioether N-14) | 0.0474 µM
Cc1cccc(C[C@@H]2NC(=O)[C@H](CC(=O)O)NC(=O)[C@H](Cc3ccc(OCC(=O)O)cc3)NC(=O)[C@H](C(C)O)NC(=O)CSC[C@@H](C(=O)N[C@@H](CCN)C(=O)NCCCCCCCCCCC(=O)O)NC(=O)[C@H](C(C)O)NC(=O)[C@H](C(C)C)NC(=O)[C@H](CC3CCCCC3)NC(=O)[C@H](CCN)NC(=O)[C@@H](CC(C)C)NC(=O)[C@H](C)N(C)C(=O)[C@H](Cc3ccc(OCC(=O)O)cc3)NC(=O)[C@H](Cc3ccc(-c4ccccc4)cc3)NC(=O)[C@H](Cc3ccc(C(=O)O)cc3)NC2=O)c1 (stereo partly drawn) [Example 2353] ({CH2CO}-[Thr(3ξ)]Y(Carboxymethyl)D[Phe(3-Me)][Phe(4-COOH)][Bip]Y(Carboxymethyl)[NMeA][dL][Dab][Cha]V[Thr(3ξ)]C[Dab][Aun]-OH; thioether N-14) | 0.0215 µM
Cc1cccc(C[C@@H]2NC(=O)[C@H](CC(=O)O)NC(=O)[C@H](Cc3ccc(OCC(=O)O)cc3)NC(=O)[C@H](C(C)O)NC(=O)CSC[C@@H](C(=O)N[C@@H](CCCN)C(=O)N[C@@H](CO)C(=O)NCCCCCCCCCCCC(=O)O)NC(=O)[C@H](C(C)O)NC(=O)[C@H](C(C)C)NC(=O)[C@H](CC3CCCCC3)NC(=O)[C@H](CCN)NC(=O)[C@@H](CC(C)C)NC(=O)[C@H](C)N(C)C(=O)[C@H](CCCNC(N)=O)NC(=O)[C@H](Cc3ccc(-c4ccccc4)cc3)NC(=O)[C@H](C(C)C)NC2=O)c1 (stereo partly drawn) [Example 2412] ({CH2CO}-[Thr(3ξ)]Y(Carboxymethyl)D[Phe(3-Me)]V[Bip][Cit][NMeA][dL][Dab][Cha]V[Thr(3ξ)]C[Orn]S[12Ado]-OH; thioether N-14) | 0.0129 µM
Cc1cccc(C[C@@H]2NC(=O)[C@H](CC(=O)O)NC(=O)[C@H](Cc3ccc(OCC(=O)O)cc3)NC(=O)[C@H](CN)NC(=O)CSC[C@@H](C(=O)NCCNCCNCC(=O)N[C@@H](CCCN)C(=O)NCCCCCCCCCCC(=O)O)NC(=O)[C@H](CO)NC(=O)[C@H](C(C)C)NC(=O)[C@H](CC(C)C)NC(=O)[C@H](CC(N)=O)NC(=O)[C@@H](CC(C)C)NC(=O)[C@H](C)N(C)C(=O)[C@H](C(C)C)NC(=O)[C@H](Cc3ccc(-c4ccccc4)cc3)NC(=O)[C@H](CC(C)C)NC2=O)c1 [Example 1064] ({CH2CO}-[Dap]Y(Carboxymethyl)D[Phe(3-Me)]L[Bip]V[NMeA][dL]NLVSC-X3; thioether N-14) | 0.0236 µM
CC(=O)NCCCC[C@@H]1NC(=O)[C@H](Cc2ccc(-c3ccccc3)cc2)NC(=O)[C@H](Cc2ccc(O)cc2)NC(=O)[C@H](Cc2cccc(C)c2)NC(=O)[C@H](CC(=O)O)NC(=O)[C@H](Cc2ccc(OCC(=O)O)cc2)NC(=O)[C@H](Cc2ccc(OCC(=O)O)cc2)NC(=O)CSC[C@@H](C(=O)NCCCCCCCCCCC(=O)O)NC(=O)[C@H](C(C)O)NC(=O)[C@H](C(C)C)NC(=O)[C@H](CC2CCCCC2)NC(=O)[C@H](CCN)NC(=O)[C@@H](CC(C)C)NC(=O)[C@H](C)N(C)C1=O (stereo partly drawn) [Example 2379] ({CH2CO}-Y(Carboxymethyl)Y(Carboxymethyl)D[Phe(3-Me)]Y[Bip]K(Ac)[NMeA][dL][Dab][Cha]V[Thr(3ξ)]C[Aun]-OH; thioether N-14) | 0.0389 µM
CCC(C)[C@H]1NC(=O)[C@H](Cc2ccc(-c3ccccc3)cc2)NC(=O)[C@H](CC(C)C)NC(=O)[C@H](Cc2c[nH]c3ccccc23)NC(=O)[C@H](CC(=O)O)NC(=O)[C@H](Cc2ccc(C(=O)O)cc2)NC(=O)[C@H](Cc2ccc(OCC(=O)O)cc2)NC(=O)CSC[C@@H](C(=O)NCCCCCCCCCCC(=O)O)NC(=O)[C@H](CCCCN)NC(=O)[C@H](C(C)C)NC(=O)[C@H](CC2CCCCC2)NC(=O)[C@H](CCN)NC(=O)[C@@H](CC(C)C)NC(=O)[C@@H](C)N(C)C1=O (stereo partly drawn) [Example 2236] ({CH2CO}-Y(Carboxymethyl)[Phe(4-COOH)]DWL[Bip][dIle(3ξ)][dNMeA][dL][Dab][Cha]VKC[Aun]-OH; thioether N-14) | 0.0131 µM
CC(=O)NCCCC[C@@H]1NC(=O)[C@H](C(C)(C)O)NC(=O)[C@H](CC2CCCCC2)NC(=O)[C@H](CCN)NC(=O)[C@@H](CC(C)C)NC(=O)[C@H](C)N(C)C(=O)[C@H](CCCNC(N)=O)NC(=O)[C@H](Cc2ccc(-c3ccccc3)cc2)NC(=O)[C@H](Cc2ccc(C(=O)O)cc2)NC(=O)[C@H](Cc2cccc(C(F)(F)F)c2)NC(=O)[C@H](CC(=O)O)NC(=O)[C@H](Cc2ccc(OCC(=O)O)cc2)NC(=O)[C@H](CN2CCOCC2)NC(=O)CSC[C@@H](C(=O)N[C@@H](CCN)C(=O)NCCOCCOCC(=O)NC(CCC(=O)NCCOCCOCC(=O)NCCCCCCCCCCCCC(=O)O)C(=O)O)NC1=O (stereo partly drawn) [Example 1178] ({CH2CO}-[Ala(morpholin-4-yl)]Y(Carboxymethyl)D[Phe(3-CF3)][Phe(4-COOH)][Bip][Cit][NMeA][dL][Dab][Cha][Val(3-OH)]K(Ac)C[Dab][AEEA][ξγGlu][AEEA]-{NH(CH2)12COOH}; thioether N-14) | 0.0124 µM
CC(C)C[C@@H]1NC(=O)[C@H](Cc2c[nH]c3ccccc23)NC(=O)[C@H](CC(=O)O)NC(=O)[C@H](Cc2ccc(C(=O)O)cc2)NC(=O)[C@H](Cc2ccc(OCC(=O)O)cc2)NC(=O)CSC[C@@H](C(=O)NCC(=O)N[C@@H](CCN)C(=O)NCC(=O)NCCCCCCCCCCC(=O)O)NC(=O)[C@H](CO)NC(=O)[C@H](C(C)C)NC(=O)[C@H](CC2CCCCC2)NC(=O)[C@H](CCN)NC(=O)[C@@H](CC(C)C)NC(=O)[C@H](C)N(C)C(=O)[C@H](C(C)C)NC(=O)[C@H](Cc2ccc(-c3ccccc3)cc2)NC1=O [Example 1029] ({CH2CO}-Y(Carboxymethyl)[Phe(4-COOH)]DWL[Bip]V[NMeA][dL][Dab][Cha]VSCG[Dab]G[Aun]-OH; thioether N-14) | 0.009 µM
Cc1cccc(C[C@@H]2NC(=O)[C@H](CC(=O)O)NC(=O)[C@H](Cc3ccc(OCC(=O)O)cc3)NC(=O)[C@H](Cc3ccncc3)NC(=O)CSC[C@@H](C(=O)NCCOCCOCC(=O)NCCCCCCCCCCC(=O)O)NC(=O)[C@H](CCCN)NC(=O)[C@H](C(C)C)NC(=O)[C@H](CC3CCCCC3)NC(=O)[C@H](CCN)NC(=O)[C@@H](CC(C)C)NC(=O)[C@H](C)N(C)C(=O)[C@H](Cc3ccc(O)cc3)NC(=O)[C@H](Cc3ccc(-c4ccccc4)cc3)NC(=O)[C@H](CC(C)C)NC2=O)c1 [Example 2218] ({CH2CO}-[4Pal]Y(Carboxymethyl)D[Phe(3-Me)]L[Bip]Y[NMeA][dL][Dab][Cha]V[Orn]C[AEEA][Aun]-OH; thioether N-14) | 0.0333 µM
CC(C)C[C@@H]1NC(=O)[C@H](Cc2c[nH]c3ccccc23)NC(=O)[C@H](CC(=O)O)NC(=O)[C@H](Cc2ccc(C(=O)O)cc2)NC(=O)[C@H](Cc2ccc(OCC(=O)O)cc2)NC(=O)CSC[C@@H](C(=O)N[C@@H](CCN)C(=O)NCCCCCCCCCCC(=O)O)NC(=O)[C@@H](CCC(N)=O)NC(=O)[C@H](C(C)C)NC(=O)[C@H](CC2CCCCC2)NC(=O)[C@H](CCN)NC(=O)[C@@H](CC(C)C)NC(=O)[C@H](C)N(C)C(=O)[C@H](C(C)C)NC(=O)[C@H](Cc2ccc(-c3ccccc3)cc2)NC1=O [Example 1339] ({CH2CO}-Y(Carboxymethyl)[Phe(4-COOH)]DWL[Bip]V[NMeA][dL][Dab][Cha]V[dQ]C[Dab][Aun]-OH; thioether N-14) | 0.028 µM
Cc1cccc(C[C@@H]2NC(=O)[C@H](CC(=O)O)NC(=O)[C@H](Cc3ccc(OCC(=O)O)cc3)NC(=O)[C@H](CCCNC(=N)N)NC(=O)CSC[C@@H](C(=O)N[C@@H](CCN)C(=O)NCCCCCCCCCCC(=O)O)NC(=O)[C@H]([C@@H](C)O)NC(=O)[C@H](C(C)C)NC(=O)[C@H](CC3CCCCC3)NC(=O)[C@H](CCN)NC(=O)[C@@H](CC(C)C)NC(=O)[C@H](C)N(C)C(=O)[C@H](CCCNC(N)=O)NC(=O)[C@H](Cc3ccc(-c4ccccc4)cc3)NC(=O)[C@H](Cc3ccc(O)cc3)NC2=O)c1 [Example 1355] ({CH2CO}-RY(Carboxymethyl)D[Phe(3-Me)]Y[Bip][Cit][NMeA][dL][Dab][Cha]VTC[Dab][Aun]-OH; thioether N-14) | 0.0051 µM
